Experimental data as given in ChEMBL document CHEMBL3988442, “University of Dundee, Small-Polar-MMV Screening Library” (2021).
Several values for one entry are separate records, joined by “and”; a condition that tells them apart may be missing. Equal values may be shown once.

What was measured:
[1] = biological target: T1, Tyrosyl-tRNA synthetase, putative (Trypanosoma cruzi (strain CL Brener), UniProt Q4DSP6); test: Trypanosoma cruzi tyrosyl tRNA synthetase (TcYRS) _High Tyrosine SOP; format: functional
T1 sequence (Q4DSP6 whole entry): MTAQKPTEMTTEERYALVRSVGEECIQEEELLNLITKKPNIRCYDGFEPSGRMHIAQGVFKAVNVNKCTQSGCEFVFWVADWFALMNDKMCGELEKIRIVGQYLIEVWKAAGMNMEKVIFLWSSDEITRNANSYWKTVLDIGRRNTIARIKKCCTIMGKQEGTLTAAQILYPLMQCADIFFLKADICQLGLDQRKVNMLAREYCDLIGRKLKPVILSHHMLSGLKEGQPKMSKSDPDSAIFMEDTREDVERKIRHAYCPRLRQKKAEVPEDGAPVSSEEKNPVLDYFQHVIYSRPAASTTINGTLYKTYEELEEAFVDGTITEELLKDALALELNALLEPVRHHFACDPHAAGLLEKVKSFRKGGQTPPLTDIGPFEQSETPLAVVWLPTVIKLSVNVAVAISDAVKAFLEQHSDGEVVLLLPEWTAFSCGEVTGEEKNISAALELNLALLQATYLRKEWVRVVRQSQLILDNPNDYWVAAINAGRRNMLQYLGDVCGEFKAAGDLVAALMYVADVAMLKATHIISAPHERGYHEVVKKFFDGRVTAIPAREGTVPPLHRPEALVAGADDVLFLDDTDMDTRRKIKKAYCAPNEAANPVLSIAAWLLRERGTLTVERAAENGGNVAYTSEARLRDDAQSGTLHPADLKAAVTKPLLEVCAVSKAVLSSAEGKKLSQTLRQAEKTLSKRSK

[2] = biological target: T1, Tyrosyl-tRNA synthetase, putative; test: Trypanosoma cruzi tyrosyl tRNA synthetase (TcYRS) SOP; format: functional
[3] = biological target: T2, Shiga toxin 2 (Escherichia coli O157:H7, UniProt P09385+P09386); test: E. coli 0.157:H7 Shiga Toxin SOP - stx2 screening assay; format: functional
T2 sequence (P09385 whole entry): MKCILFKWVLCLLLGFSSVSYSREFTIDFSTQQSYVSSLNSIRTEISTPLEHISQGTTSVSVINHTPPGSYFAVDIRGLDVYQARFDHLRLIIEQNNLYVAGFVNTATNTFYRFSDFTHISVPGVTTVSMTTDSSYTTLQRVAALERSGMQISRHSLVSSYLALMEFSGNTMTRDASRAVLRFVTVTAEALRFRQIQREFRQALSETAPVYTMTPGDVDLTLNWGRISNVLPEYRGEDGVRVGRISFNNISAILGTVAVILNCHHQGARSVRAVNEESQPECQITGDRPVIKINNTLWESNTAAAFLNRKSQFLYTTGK
T2 sequence (P09386 whole entry): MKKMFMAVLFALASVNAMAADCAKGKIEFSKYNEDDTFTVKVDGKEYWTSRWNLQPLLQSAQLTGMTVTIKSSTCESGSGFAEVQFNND

[4] = To identify inhibition of the IFN signalling (Jak-Stat) pathway via expression of an eGFP reporter gene under the control of an IFN-stimulated response element (ISRE) containing MxA promoter.; format: functional, Homo sapiens
[5] = biological target: T3, Histidine--tRNA ligase (Leishmania infantum, UniProt A4I591); test: Leishmania infantum Histidine tRNA synthetase (LdHisRS); format: functional
T3 sequence (A4I591 whole entry): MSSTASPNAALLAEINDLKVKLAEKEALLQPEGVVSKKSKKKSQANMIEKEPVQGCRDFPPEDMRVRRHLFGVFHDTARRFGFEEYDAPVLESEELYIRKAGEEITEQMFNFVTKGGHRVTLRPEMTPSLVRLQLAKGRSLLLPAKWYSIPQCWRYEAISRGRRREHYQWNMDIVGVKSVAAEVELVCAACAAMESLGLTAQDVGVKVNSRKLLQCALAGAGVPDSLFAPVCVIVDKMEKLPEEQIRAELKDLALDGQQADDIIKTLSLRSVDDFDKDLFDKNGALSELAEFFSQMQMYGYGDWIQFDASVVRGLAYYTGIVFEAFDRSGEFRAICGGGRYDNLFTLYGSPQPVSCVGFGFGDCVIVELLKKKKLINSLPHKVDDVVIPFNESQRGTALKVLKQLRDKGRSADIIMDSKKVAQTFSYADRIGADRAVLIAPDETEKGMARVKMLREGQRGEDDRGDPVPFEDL

[6] = Trypanosoma cruzi proteasome luciferase counter-screen; format: functional, N/A
[7] = microbe, parasite or virus in culture; details: Mycobacterium tuberculosis, 72 h, read-out: pIC50 (converted)
[8] = microbe, parasite or virus in culture; details: Mycobacterium tuberculosis, 96 h, read-out: pIC50 (converted)
[9] = In vitro enzyme assay to detect hydrolysis of chlorophenol red-beta-D-[…] directly proportional to the number of Toxoplasma stably expressing beta-galactosidase; format: functional, organism-based, Toxoplasma gondii; details: Toxoplasma gondii
[10] = biological target: T4, Proteasome subunit beta (Trypanosoma cruzi, UniProt O96673); test: Trypanosoma cruzi proteasome chymotrypsin-like activity (TcProtChymo) assay.; format: functional
T4 sequence (O96673 whole entry): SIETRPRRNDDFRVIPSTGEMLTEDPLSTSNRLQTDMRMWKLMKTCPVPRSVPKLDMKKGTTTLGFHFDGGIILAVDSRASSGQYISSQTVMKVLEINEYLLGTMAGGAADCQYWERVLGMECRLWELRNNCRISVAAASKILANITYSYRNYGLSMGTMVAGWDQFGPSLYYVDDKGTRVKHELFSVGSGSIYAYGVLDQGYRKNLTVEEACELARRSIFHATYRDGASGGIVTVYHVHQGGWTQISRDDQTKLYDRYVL

[11] = biological target: Lysine--tRNA ligase (Plasmodium falciparum (isolate 3D7), UniProt Q8IDJ8); test: Pf-KRS-1 (Lysyl-RNA Synthetase-1, KRS-1, cytosolic KRS) from Plasmodium falciparum. Inhibitor assay, 384 well plate, luminescence read.; format: functional
[12] = biological target: T5, Aspartate--tRNA(Asp/Asn) ligase (Mycobacterium tuberculosis (strain ATCC 25618 / H37Rv), UniProt P9WFW3); test: Assay for Asp RNA synthetase-1 from Mycobacterium tuberculosis; format: functional
T5 sequence (P9WFW3 whole entry): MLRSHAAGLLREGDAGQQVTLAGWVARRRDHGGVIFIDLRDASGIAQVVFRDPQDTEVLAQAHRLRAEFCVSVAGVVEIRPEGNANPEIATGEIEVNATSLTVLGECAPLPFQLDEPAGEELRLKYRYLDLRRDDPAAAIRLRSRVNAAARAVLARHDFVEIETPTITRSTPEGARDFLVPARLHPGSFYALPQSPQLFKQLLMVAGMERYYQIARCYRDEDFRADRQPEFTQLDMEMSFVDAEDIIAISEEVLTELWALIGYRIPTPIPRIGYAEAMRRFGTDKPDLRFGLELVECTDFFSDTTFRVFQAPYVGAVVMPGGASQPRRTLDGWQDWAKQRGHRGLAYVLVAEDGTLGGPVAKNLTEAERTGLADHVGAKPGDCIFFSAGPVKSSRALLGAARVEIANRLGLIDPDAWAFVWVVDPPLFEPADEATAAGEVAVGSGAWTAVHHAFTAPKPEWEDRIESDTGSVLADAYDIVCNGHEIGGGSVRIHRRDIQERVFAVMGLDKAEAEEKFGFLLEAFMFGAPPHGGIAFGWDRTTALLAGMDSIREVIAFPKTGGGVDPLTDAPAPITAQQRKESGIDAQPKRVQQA

[13] = biological target: Chromo domain-containing protein 1 (Saccharomyces cerevisiae (strain ATCC 204508 / S288c) (Baker's yeast), UniProt P32657); test: ScCHD-1 Enzyme Inhibition Assay; format: functional
[14] = biological target: T6, Histidine--tRNA ligase (Trypanosoma cruzi (strain CL Brener), UniProt Q4DA54); test: Trypanosoma cruzi histidyl tRNA synthetase (Tc-HisRS); format: functional
T6 sequence (Q4DA54 whole entry): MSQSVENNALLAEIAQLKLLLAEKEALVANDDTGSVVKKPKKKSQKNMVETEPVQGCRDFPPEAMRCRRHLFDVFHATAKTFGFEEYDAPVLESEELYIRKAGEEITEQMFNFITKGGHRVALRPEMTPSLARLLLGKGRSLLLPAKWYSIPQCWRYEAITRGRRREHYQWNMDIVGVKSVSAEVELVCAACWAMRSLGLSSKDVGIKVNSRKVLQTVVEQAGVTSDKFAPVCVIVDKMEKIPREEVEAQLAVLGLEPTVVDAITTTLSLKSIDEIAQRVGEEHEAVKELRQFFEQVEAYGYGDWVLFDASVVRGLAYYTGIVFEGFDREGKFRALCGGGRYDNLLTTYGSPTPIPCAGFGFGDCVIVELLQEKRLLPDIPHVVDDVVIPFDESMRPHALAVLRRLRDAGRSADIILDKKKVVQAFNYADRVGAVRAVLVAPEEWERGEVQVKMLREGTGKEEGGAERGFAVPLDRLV

[15] = test system: Plasmodium falciparum; test: Calibr Malaria Delayed Death Assay SOP; format: functional, organism-based

Sequence of Lysine--tRNA ligase (Q8IDJ8 whole entry): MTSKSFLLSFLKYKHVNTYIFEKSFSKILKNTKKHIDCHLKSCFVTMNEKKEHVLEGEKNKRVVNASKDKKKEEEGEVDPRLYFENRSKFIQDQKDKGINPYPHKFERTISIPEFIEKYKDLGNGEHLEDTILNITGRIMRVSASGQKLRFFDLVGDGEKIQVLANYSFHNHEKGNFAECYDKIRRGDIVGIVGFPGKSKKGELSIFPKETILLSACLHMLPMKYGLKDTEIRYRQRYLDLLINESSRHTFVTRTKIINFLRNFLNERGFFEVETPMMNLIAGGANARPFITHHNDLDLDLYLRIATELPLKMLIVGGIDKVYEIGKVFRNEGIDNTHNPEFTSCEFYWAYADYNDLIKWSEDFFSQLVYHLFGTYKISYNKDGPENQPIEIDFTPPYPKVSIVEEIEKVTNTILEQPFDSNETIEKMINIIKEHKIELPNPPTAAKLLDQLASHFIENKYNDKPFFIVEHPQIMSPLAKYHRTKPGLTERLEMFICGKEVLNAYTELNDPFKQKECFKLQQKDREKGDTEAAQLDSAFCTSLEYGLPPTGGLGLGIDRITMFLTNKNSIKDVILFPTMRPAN
Sequence of Chromo domain-containing protein 1 (P32657 whole entry, the tested form may be a part): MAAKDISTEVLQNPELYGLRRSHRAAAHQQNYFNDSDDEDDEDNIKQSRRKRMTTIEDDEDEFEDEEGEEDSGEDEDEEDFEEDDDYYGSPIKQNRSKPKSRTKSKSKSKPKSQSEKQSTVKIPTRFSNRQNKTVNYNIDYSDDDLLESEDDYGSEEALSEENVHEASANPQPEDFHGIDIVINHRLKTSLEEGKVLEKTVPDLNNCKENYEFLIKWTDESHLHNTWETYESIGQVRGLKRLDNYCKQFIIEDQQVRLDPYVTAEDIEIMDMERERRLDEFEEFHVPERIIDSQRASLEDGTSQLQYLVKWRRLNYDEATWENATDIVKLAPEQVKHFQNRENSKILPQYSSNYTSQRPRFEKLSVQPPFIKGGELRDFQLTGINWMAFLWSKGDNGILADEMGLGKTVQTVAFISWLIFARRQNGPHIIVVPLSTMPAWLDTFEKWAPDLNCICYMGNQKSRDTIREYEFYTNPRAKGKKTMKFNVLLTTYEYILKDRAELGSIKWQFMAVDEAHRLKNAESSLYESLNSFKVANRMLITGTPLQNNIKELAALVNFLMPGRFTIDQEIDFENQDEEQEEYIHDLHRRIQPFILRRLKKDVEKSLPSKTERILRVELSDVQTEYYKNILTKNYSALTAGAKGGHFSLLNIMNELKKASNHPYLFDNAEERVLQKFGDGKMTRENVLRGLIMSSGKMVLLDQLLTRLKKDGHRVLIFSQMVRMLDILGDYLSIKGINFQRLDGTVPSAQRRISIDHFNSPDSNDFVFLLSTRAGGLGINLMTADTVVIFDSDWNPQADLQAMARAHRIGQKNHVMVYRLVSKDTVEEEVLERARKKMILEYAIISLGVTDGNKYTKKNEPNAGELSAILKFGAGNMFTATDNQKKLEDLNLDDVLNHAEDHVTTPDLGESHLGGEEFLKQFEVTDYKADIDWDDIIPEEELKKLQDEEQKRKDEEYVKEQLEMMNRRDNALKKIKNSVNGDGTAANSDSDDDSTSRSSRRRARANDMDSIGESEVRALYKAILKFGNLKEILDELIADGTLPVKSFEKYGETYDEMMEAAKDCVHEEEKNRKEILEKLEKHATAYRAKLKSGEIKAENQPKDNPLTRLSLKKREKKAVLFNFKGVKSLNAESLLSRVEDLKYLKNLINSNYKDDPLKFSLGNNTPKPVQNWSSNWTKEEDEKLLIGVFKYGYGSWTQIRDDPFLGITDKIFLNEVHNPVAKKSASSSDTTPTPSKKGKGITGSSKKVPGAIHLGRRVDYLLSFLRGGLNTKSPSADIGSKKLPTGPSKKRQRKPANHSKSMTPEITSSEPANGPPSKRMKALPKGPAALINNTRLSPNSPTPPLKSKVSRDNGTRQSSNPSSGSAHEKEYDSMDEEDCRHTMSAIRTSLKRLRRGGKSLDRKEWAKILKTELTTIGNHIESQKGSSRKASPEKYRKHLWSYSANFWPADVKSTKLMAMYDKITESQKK

CNC(=O)C1(c2cnccn2)CCCN1C(=O)c1ccn(C)n1 (stereo not given)
IC50 [1]: > 100 µM
IC50 [2]: > 100 µM

CN(C)S(=O)(=O)N1CCCC(c2cccc(Cc3ccccc3)n2)C1 (stereo not given)
IC50 [3]: > 100 µM
pIC50 [4]: 4.718 and 4.613

NC[C@H]1CC[C@H](C(NC(=O)c2cccc(F)c2)c2ccccn2)CC1 (stereo not given in full)
IC50 [1]: > 100 µM and 87.7 µM
IC50 [5]: 51 µM and 44.2 µM
IC50 [2]: 76 µM and > 100 µM

Fc1cccc(Oc2ccc(CNCC3CNc4ccnn4C3)cn2)c1 (stereo not given)
IC50 [1]: > 100 µM
IC50 [5]: > 100 µM
IC50 [2]: > 100 µM

Cc1cccnc1NC(=O)NCc1ccc(N2CCNC(=O)C2)cc1
IC50 [1]: 52 µM and 31.6 µM
IC50 [5]: 19.7 µM and 15 µM
IC50 [2]: 53.1 µM and 32.9 µM

CN(CCCOc1ccccc1)C(=O)CN1CCc2cncnc2C1
IC50 [1]: > 100 µM
IC50 [5]: 44 µM and 39.2 µM
IC50 [2]: > 100 µM

Cc1noc(NC(=O)c2ccc(OC(F)(F)F)cc2)n1
IC50 [3]: > 100 µM
pIC50 [6]: 5.158 and 4.98
IC50 [7]: 20 µM
IC50 [8]: 36.6 µM
IC50 [9]: 4.96 µM
pIC50 [4]: 5.092
IC50 [10]: 4.36 µM and 4.71 µM

Cc1noc(NC(=O)c2ccc(Br)cc2)n1
IC50 [3]: > 100 µM
IC50 [9]: 9.76 µM
pIC50 [4]: 4.648 and 4.809

CCn1nc2c(cc1=O)CN(Cc1nc(-c3ccccn3)no1)CC2
IC50 [5]: 40 µM and 50.3 µM
IC50 [11]: > 50.1 µM
IC50 [12]: > 100 µM

Fc1ccc(OCc2noc(CN3CCc4cncnc4C3)n2)cc1
IC50 [1]: > 100 µM
IC50 [5]: 49.6 µM and 74.9 µM
IC50 [2]: > 100 µM

N#Cc1ccc(NCCNc2ccc(C(F)(F)F)cn2)nc1
IC50 [3]: > 100 µM
IC50 [9]: 22.7 µM
pIC50 [4]: 5.715

Cn1nc2c(cc1=O)CN(Cc1nc(C(C)(C)C)no1)CC2
IC50 [5]: 25.4 µM and 17.9 µM
IC50 [11]: > 50.1 µM
IC50 [12]: > 100 µM

O=S(=O)(CCN1CCOC(Cn2cccn2)C1)C(F)(F)F (stereo not given)
IC50 [3]: 15 µM and 14 µM
IC50 [7]: 28.9 µM
IC50 [8]: > 50.1 µM
IC50 [13]: > 29.5 µM

O=C(O)C(F)(F)F.c1cnc(N2CCC3(CC2)CN(CC2CC2)c2ccccc23)nc1
IC50 [14]: 32.3 µM and 19.9 µM
IC50 [1]: 19.4 µM and 17.9 µM
IC50 [5]: 9.51 µM and 9.98 µM
pIC50 [15]: 6.09
IC50 ([15]; Plasmodium falciparum): 1.26 µM
IC50 [2]: 16.3 µM and 16.2 µM

CC(C)NC(=O)N1CCN(CC2CC2)CC2(CC(=O)N(C)C2)C1 (stereo not given)
IC50 [1]: > 100 µM
IC50 [2]: > 100 µM
